Data taken from patent publication US20080286301A1, “Treatment of diabetes” (priority 1997, published 2008).
Entries after “also recorded” stand apart in the source; their conditions may differ.

Assays:
Format in all cases: in vivo, human
[1] = tested on: subjects with remission phase Type I diabetes; test: Intravenous glucose infusion with intravenous GLIP (Example 2); details: IV GLIP 1.2 pm/kg/min for 60 min along with IV glucose 20 g over 60 min; FIG. 2
[2] = tested on: Type 1 diabetic subject; test: GLIP along with insulin subcutaneously prior to Sustacal meal, post-prandial glycaemia (Example 6); details: 50 μg GLIP sc along with 5 units insulin (half the usual dose) prior to Sustacal meal; one subject; FIG. 6 Panel A
Experimental: (§1) One Type 1 diabetic subject was given GLIP along with insulin and the effects on post-prandial glycaemia observed. The subject received 5 units of insulin and 50 μg GLIP as subcutaneous injections immediately prior to ingestion of a Sustacal meal as described in Example 1. Blood levels of GLIP were monitored by a standard radioimmunoassay method.

[3] = Blood levels of GLIP by radioimmunoassay after subcutaneous injection (Example 6); details: 50 μg GLIP sc with 5 units insulin, Type I diabetic subject; FIG. 6 Panel E
Experimental: as §1

[4] = tested on: normal volunteers; test: Sustacal meal preceded by subcutaneous injection of GLIP in normal volunteers (Example 4); details: 100 μg GLIP sc before Sustacal meal
Source text: Results are shown in FIG. 4. *indicates statistically significant differences between treatments (p<0.05).

[5] = tested on: subjects with remission phase Type I diabetes; test: Sustacal meal with infusion of 0.75 pm/kg/min GLIP (Example 3); details: versus saline infusion control, FIG. 3
Experimental: Four subjects with remission phase Type I diabetes were studied during infusion with 0.75 pm/kg/min-GLIP for 120 minutes after a Sustacal meal.
The test was conducted as described in Example 1 and blood glucose and C-peptide levels were measured. On a further test day, the subjects were studied during saline infusion after a similar Sustacal meal.

[6] = tested on: subjects with remission phase Type I diabetes; test: Sustacal meal with intravenous GLIP infusion 1.2 pm/kg/min (Example 1); details: IV GLIP 1.2 pm/kg/min for 120 min after Sustacal meal; for gastrin levels / gastrin response: FIG. 1 Panel E
Experimental: 7 subjects with remission phase Type I diabetes were studied after ingestion of a standardised meal of Sustacal (Upjohn) (delivering […]). Subjects continued their normal insulin treatment programme on the day prior to the test and, on the day of the test, omitted their morning insulin injection and arrived fasting at 8:00 am. […] Infusion was continued for 120 minutes. Blood levels of glucose, C-peptide, gastrin, glucagon and HPP were monitored by standard radioimmunoassay methods in samples taken before and at intervals during the study, up to 180 minutes. On another test day, subjects were given the Sustacal meal alone and the same analytes were similarly monitored.

[7] = tested on: Type I diabetic subjects; test: Sustacal meal preceded by subcutaneous injection of 100 μg GLIP in Type I diabetics (Example 5); details: 100 μg GLIP sc prior to test meal
Source text: Type I diabetic subjects were studied.
The results are shown in FIG. 5. *indicates statistically significant differences between treatments (p<0.05).

Substance: Glucagon-like peptide 1(7-36)amide [GLIP]
- control of blood glucose level [1]: improved control of blood glucose level
- blood glucose after standard meal (highest level) [2]: ≤ 8 mM
- time to clearance from the blood [3]: about two
- increase in blood levels of C-peptide [4]: delay in increase
- increase in blood levels of HPP [4]: delay in increase
- increase in blood levels of glucose [4]: delay in increase
- increase in blood levels of insulin [4]: delay in increase
- C-peptide ([5]; lower dose of GLIP (0.75 pmol/kg/min) along with a meal): some increase
- blood glucose ([5]; lower dose of GLIP (0.75 μmol/kg/min) along with a meal): some increase; also recorded: less than in the control experiment
- blood levels of C-peptide ([6]; FIG. 1): prevented a significant increase in blood levels of C-peptide
- plasma glucagon levels stimulated by the meal ([6]; FIG. 1): prevented the mean rise in plasma glucagon levels
- secretion of pancreatic polypeptide (PP) after the meal ([6]; FIG. 1 Panel C): this response was absent
- gastrin levels / gastrin response [6]: not significantly affected
- gastrin levels / gastrin response ([6]; listed as CLIP): normal gastrin response
- blood glucose levels compared to control ([7]; FIG. 5 Panel A): lowering of blood glucose levels
- pancreatic polypeptide (HPP) levels ([7]; FIG. 5 Panel D): delayed rise in pancreatic polypeptide (HPP) levels
- insulin secretion over control levels ([7]; FIG. 5 Panels B and C): no enhancement of insulin secretion over control levels
